According to paper PMC11703214 (bioRxiv, 2024):

How the values were obtained:
Assay type in all cases: cell-based
gACh3.0 = assay: Fluorescence imaging; conditions: read-out: EC50 (μM), normalized dose-response curves, HEK293T; n = 3
iAChSnFR = assay: Fluorescence imaging; conditions: read-out: EC50 (μM), normalized dose-response curves, HEK293T; n = 3
G protein pathway = assay: Luciferase complementation assay; conditions: ACh 0.1 nM to 100 μM
β-arrestin pathway = assay: Tango assay; conditions: ACh 0.01 nM to 100 μM

| Compound | EC50 (gACh3.0) [µM] | EC50 (iAChSnFR) [µM] | coupling to G protein pathway (G protein pathway) | coupling to β-arrestin pathway (β-arrestin pathway) |
| --- | --- | --- | --- | --- |
| CC(=O)OCC[N+](C)(C)C [ACh, acetylcholine] | 2.2 | 8.8 | – | – |
| wild-type human M3R: wild-type human type 3 muscarinic ACh receptor, positive control for downstream coupling | – | – | robust coupling | robust coupling |
